Assay results: US10995070B2, “Acetyl-CoA carboxylase modulators” (Monsanto Technology LLC, priority 2013, dated 2021)

Legend:
Type in all cases: cell-based
[1] = tested on: Collectotrichum graminicola; assay: Fungal growth inhibition assay, C. graminicola; settings: Colletotrichum graminicola, 48 h
Protocol: (§1) Spores were isolated from previously sub-cultured plates of Botrytis cinerea, Phytophthora capsici, Fusarium moniliforme, Fusarium viguliforme, Collectotrichum graminicola, and Diplodia maydis. All spores were filtered and collected in a sterile glass bowl to isolate the spores from the mycelia. The isolation and sub-culture plate condition for each pathogen is described below.
Spore isolation for C. graminicola: A 1-2 week old oatmeal agar (pre-mix) plate was removed from 26° C. incubator with a light/dark 12 hour cycle and the mycelia were treated with 10-15 ml of filter sterilized distilled water. The mycelia were scraped to re-suspend the spores. The spores were then collected in a sterile filter bowl containing a piece of sterile cheesecloth and poured into a conical tube.
(§2) After spore isolation, pathogen spores were counted on a hemocytometer to calculate the spores/ml. In 17% V8 liquid media containing 3 g/L CaCO3, isolated spores were diluted to individual concentrations based on the growth curves at 48 hours of each pathogen. The spore concentrations for each pathogen were as follows: B. cinerea—10,000 sp/ml; P. capsici—300 sp/ml; F. monliforme—500 sp/ml; F. virguliforme—500 sp/ml; C. graminicola—3,000 sp/ml; and D. maydis—3,000 sp/ml.
(§3) Chemistry stocks were dissolved in DMSO at 2.5 mg/ml. Chemistry was diluted in a 96-well stock plate in five-fold dilutions to obtain a final concentration of 50, 10, and 2 ppm in vitro. The final concentration of the positive control after the five-fold dilutions was as follows: soraphen—0.5, 0.1, and 0.02 ppm. Negative controls on each plate included 2% DMSO, water containing spores and media, and a blank for background subtraction.
(§4) In a 96-well plate the spore solution, chemistries, and controls were combined to make the final solution concentrations mentioned above. Upon addition of the chemistry, an OD600 reading was done to assess chemical precipitation. The 96-well plates were incubated in plastic tubs containing wet paper towels under the following conditions, 25° C. in the dark for P. capsici and B. cinerea or 26° C. with light/dark cycle for C. graminicola, D. maydis, F. virguliforme, F. monliforme. Plate readings were repeated at 24 and 48 hrs. Visual ratings were performed at 24 and 48 hrs to check for precipitation and confirm efficacy. Visual and OD600 ratings of the chemistry at 48 hours were compared to the 2% DMSO control to determine the percent of pathogen growth inhibition.

[2] = tested on: Botrytis cinerea; assay: Fungal growth inhibition assay, B. cinerea; settings: 48 h
From the text: as §1
Spore isolation for B. cinerea: A 2-3 week old V8 (17%)+CaCO3 (3 g/L)+20 g agar plate was removed from room temperature and the mycelia were treated with 5-10 ml of filter sterilized Triton X 100 (0.05%). The mycelia were scraped to re-suspend the spores. The spores were then collected in a sterile filter bowl containing a fluted piece of filter paper and poured into a conical tube.
as §2, §3
In a 96-well plate the spore solution, chemistries, and controls were combined to make the final solution concentrations mentioned above. Upon addition of the chemistry, an OD600 reading was done to assess chemical precipitation. […] Plate readings were repeated at 24 and 48 hrs. […]

[3] = tested on: Fusarium virguliforme; assay: Fungal growth inhibition assay, F. virguliforme; settings: 48 h
Protocol: as §1
Spore isolation for F. virguliforme: A 2-3 week old PDA (pre-mix) plate containing cefotaxime (100 mg/L) and kanamycin (50 mg/L) was removed from 26° C. incubator with a light/dark 12 hour cycle and the mycelia were treated with 5-10 ml of filter sterilized distilled water. The mycelia were scraped to re-suspend the spores. The spores were then collected in a sterile filter bowl containing a fluted piece of filter paper and poured into a conical tube.
as §2, §3, §4

[4] = tested on: Phytophthora capsici; assay: Fungal growth inhibition assay, P. capsici; settings: 48 h
From the text: as §1
Spore isolation for P. capsici: Three to five days prior to the assay a 2-3 week old V8 (17%)+CaCO3 (3 g/L)+20 g agar plate was removed from a dark 25° C. incubator and cut up into small chunks. One plate was separated into two deep well plates and rinsed with sterile distilled water three times. The cut up pieces were incubated under light in a sterile filter hood with 25 ml of sterile distilled water. On the day of the assay the water was removed and 5-7 ml of fresh sterile distilled water was added. One plate was incubated at 4° C. for 45-60 minutes and then placed at room temperature for about 45-60 minutes. The spores were collected in a sterile filter bowl containing a fluted piece of filter paper. The spores were vortexed in a conical tube for 30-60 seconds to remove the flagella of the zoospores after isolation.
as §2, §3, §4

In the case of O=C(O)Cc1ccc(-c2cc(-c3ccccc3)c3ccccc3n2)s1 [Formula Ib-iv, 2-(5-(4-phenylquinolin-2-yl)thiophen-2-yl)acetic acid], the inhibition at 2 ppm [1] is reported as 0%, the inhibition at 10 ppm [1] is reported as 53% and the inhibition at 50 ppm [1] is reported as 97%. For the same compound, the inhibition at 2 ppm ([2]; 2 ppm) was 0%, the inhibition at 10 ppm ([2]; 10 ppm) was 1% and the inhibition at 50 ppm ([2]; 50 ppm) was 42%. The inhibition at 2 ppm [3] was 4%, the inhibition at 10 ppm [3] was 29% and the inhibition at 2 ppm [4] was 0%. It also gave an inhibition at 10 ppm [4] of 11% and an inhibition at 50 ppm [4] of 80%.

Work on O=C(O)Cc1ccc(-c2nc3ccccc3c(-c3ccccc3)c2Cl)s1 [Formula Ib-ii, 2-(5-(3-chloro-4-phenylquinolin-2-yl)thiophen-2-yl)acetic acid] yielded an inhibition at 2 ppm [1] of 0%, an inhibition at 10 ppm [1] of 67% and an inhibition at 50 ppm [1] of 78%. The inhibition at 2 ppm [3] was 31%, the inhibition at 10 ppm [3] was 41% and the inhibition at 2 ppm [4] was 18%. The inhibition at 10 ppm [4] was 31% and the inhibition at 50 ppm [4] was 49%.
